In PubChem BioAssay AID1963432 (Molecular Pharmacology Branch, DTP, NCI, 2024):

System: SYO-1 complex spheroid growth, percent test/control
Assay: Anticancer human tumor SYO-1 cell line growth inhibition [Asc];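 note: compound exposure lasted 7 days after spheroids grew 3 days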;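 for viability, T/C: 100% = DMSO vehicle control viability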
Conditions: for IC50: curve of first compound; for viability, T/C: stronger effect = lower value
Summary of the method: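 Complex spheroids combining tumor cells with HUVEC endothelial cells and human MSCs, at 37 degrees C, 5% CO2; agents tested alone or combined, half-log dilutions from at or near clinical Cmax, or 10 microM if Cmax unknown.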

Molecule `NC(=O)C(=Cn1cnc(-c2cc(C(F)(F)F)cc(C(F)(F)F)c2)n1)c1cncnc1` + Cc1c(S(C)(=O)=O)c(-c2cc(F)cc(N3CCN(c4ccc(NS(=O)(=O)c5ccc(NC(CCN6CCC(C(=O)OCCCP(=O)(O)O)CC6)CSc6ccccc6)c(S(=O)(=O)C(F)(F)F)c5)cc4)CC3)c2)c(-c2ccc(Cl)cc2)n1C(C)C has an IC50 (second compound 0.0316 µM) of 170 nM, an IC50 (second compound 0.1 µM) of 165 nM and an IC50 (second compound 0.316 µM) of 159 nM. The IC50 (second compound 1 µM) was 155 nM, the IC50 (second compound 3.16 µM) was 148 nM and the IC50 (second compound 10 µM) was 110 nM. The viability, T/C (second compound 0.0316 µM, first compound 0.000949 µM) was 98.1%, the viability, T/C (second compound 0.0316 µM, first compound 0.003 µM) was 102% and the viability, T/C (second compound 0.0316 µM, first compound 0.00949 µM) was 86.8%. The viability, T/C (second compound 0.0316 µM, first compound 0.03 µM) was 93.8%, the viability, T/C (second compound 0.0316 µM, first compound 0.0949 µM) was 96.3% and the viability, T/C (second compound 0.0316 µM, first compound 0.3 µM) was 5.53%. It also gave a viability, T/C (second compound 0.1 µM, first compound 0.000949 µM) of 97.6%, a viability, T/C (second compound 0.1 µM, first compound 0.003 µM) of 94% and a viability, T/C (second compound 0.1 µM, first compound 0.00949 µM) of 89.9%. The viability, T/C (second compound 0.1 µM, first compound 0.03 µM) was 93.9%, the viability, T/C (second compound 0.1 µM, first compound 0.0949 µM) was 95.7% and the viability, T/C (second compound 0.1 µM, first compound 0.3 µM) was 2.56%. It also gave a viability, T/C (second compound 0.316 µM, first compound 0.000949 µM) of 95%, a viability, T/C (second compound 0.316 µM, first compound 0.003 µM) of 94.8% and a viability, T/C (second compound 0.316 µM, first compound 0.00949 µM) of 92.9%. The viability, T/C (second compound 0.316 µM, first compound 0.03 µM) was 92.8%, the viability, T/C (second compound 0.316 µM, first compound 0.0949 µM) was 89.1% and the viability, T/C (second compound 0.316 µM, first compound 0.3 µM) was 1.51%. It also gave a viability, T/C (second compound 1 µM, first compound 0.000949 µM) of 101%, a viability, T/C (second compound 1 µM, first compound 0.003 µM) of 91.2% and a viability, T/C (second compound 1 µM, first compound 0.00949 µM) of 86%. The viability, T/C (second compound 1 µM, first compound 0.03 µM) was 90.8%, the viability, T/C (second compound 1 µM, first compound 0.0949 µM) was 86.5% and the viability, T/C (second compound 1 µM, first compound 0.3 µM) was 0.55%. The viability, T/C (second compound 3.16 µM, first compound 0.000949 µM) was 91.2%, the viability, T/C (second compound 3.16 µM, first compound 0.003 µM) was 87.3% and the viability, T/C (second compound 3.16 µM, first compound 0.00949 µM) was 84%. The viability, T/C (second compound 3.16 µM, first compound 0.03 µM) was 86.3%, the viability, T/C (second compound 3.16 µM, first compound 0.0949 µM) was 81.3% and the viability, T/C (second compound 3.16 µM, first compound 0.3 µM) was 0.31%. It also gave a viability, T/C (second compound 10 µM, first compound 0.000949 µM) of 89%, a viability, T/C (second compound 10 µM, first compound 0.003 µM) of 76.8% and a viability, T/C (second compound 10 µM, first compound 0.00949 µM) of 75.6%. The viability, T/C (second compound 10 µM, first compound 0.03 µM) was 67.2%, the viability, T/C (second compound 10 µM, first compound 0.0949 µM) was 61.6% and the viability, T/C (second compound 10 µM, first compound 0.3 µM) was 0.38%.
In the case of `CCN1CCN(Cc2ccc(Nc3ncc(F)c(-c4cc(F)c5nc(C)n(C(C)C)c5c4)n3)nc2)CC1` + CNC(C)C(=O)NC1CN(S(=O)(=O)c2cccc(S(=O)(=O)N3CCC4CCC(C(=O)NC(c5ccccc5)c5ccccc5)N4C(=O)C(NC(=O)C(C)NC)C3)c2)CCC2CCC(C(=O)NC(c3ccccc3)c3ccccc3)N2C1=O, the IC50 (second compound 0.01 µM) is reported as over 1000 nM, the IC50 (second compound 0.0316 µM) is reported as over 1000 nM and the IC50 (second compound 0.1 µM) is reported as over 1000 nM. It also gave an IC50 (second compound 0.316 µM) of over 1000 nM, an IC50 (second compound 1 µM) of over 1000 nM and a viability, T/C (second compound 0.01 µM, first compound 0.00316 µM) of 110%. The viability, T/C (second compound 0.01 µM, first compound 0.01 µM) was 114%, the viability, T/C (second compound 0.01 µM, first compound 0.0316 µM) was 108% and the viability, T/C (second compound 0.01 µM, first compound 0.1 µM) was 111%. It also gave a viability, T/C (second compound 0.01 µM, first compound 0.316 µM) of 109%, a viability, T/C (second compound 0.01 µM, first compound 1 µM) of 116% and a viability, T/C (second compound 0.0316 µM, first compound 0.00316 µM) of 101%. The viability, T/C (second compound 0.0316 µM, first compound 0.01 µM) was 101%, the viability, T/C (second compound 0.0316 µM, first compound 0.0316 µM) was 105% and the viability, T/C (second compound 0.0316 µM, first compound 0.1 µM) was 110%. It also gave a viability, T/C (second compound 0.0316 µM, first compound 0.316 µM) of 112%, a viability, T/C (second compound 0.0316 µM, first compound 1 µM) of 114% and a viability, T/C (second compound 0.1 µM, first compound 0.00316 µM) of 102%. It also gave a viability, T/C (second compound 0.1 µM, first compound 0.01 µM) of 101%, a viability, T/C (second compound 0.1 µM, first compound 0.0316 µM) of 96.7% and a viability, T/C (second compound 0.1 µM, first compound 0.1 µM) of 106%. For the same molecule, the viability, T/C (second compound 0.1 µM, first compound 0.316 µM) was 105%, the viability, T/C (second compound 0.1 µM, first compound 1 µM) was 108% and the viability, T/C (second compound 0.316 µM, first compound 0.00316 µM) was 97.6%. It also gave a viability, T/C (second compound 0.316 µM, first compound 0.01 µM) of 103%, a viability, T/C (second compound 0.316 µM, first compound 0.0316 µM) of 108% and a viability, T/C (second compound 0.316 µM, first compound 0.1 µM) of 100%. The viability, T/C (second compound 0.316 µM, first compound 0.316 µM) was 109%, the viability, T/C (second compound 0.316 µM, first compound 1 µM) was 115% and the viability, T/C (second compound 1 µM, first compound 0.00316 µM) was 101%. The viability, T/C (second compound 1 µM, first compound 0.01 µM) was 101%, the viability, T/C (second compound 1 µM, first compound 0.0316 µM) was 103% and the viability, T/C (second compound 1 µM, first compound 0.1 µM) was 110%. The viability, T/C (second compound 1 µM, first compound 0.316 µM) was 101% and the viability, T/C (second compound 1 µM, first compound 1 µM) was 101%.
